# Laboratory results: ChEMBL document CHEMBL1212848 (Bioorg Med Chem, 2010)
# Activity calls are given as the source filed them. No cut-off for these calls is given here.
# System: HeLa
# Assay: Cellular uptake in human HeLa cells assessed as retention time at 2 uM after 48 hrs by HPLC-MS analysis
# Type: ADME, cell-based
row,Compound,Time [min]
1,CC/C(=C(\c1ccccc1)c1ccc(OCC[N+](C)(C)C)cc1)c1ccccc1.[I-] [TAMOXIFEN METHYL IODIDE],5
2,CC/C(=C(\c1ccccc1)c1ccc(OCCN(C)C)cc1)c1ccccc1 [TAMOXIFEN],9
3,CC/C(=C(\c1ccccc1)c1ccc(OCC[N+](C)(C)C(C)C)cc1)c1ccccc1.[Br-] [TAMOXIFEN ISOPROPYL BROMIDE],10

# Further lines, results first:
row,Time [min],Compound
1,10,CCCC[N+](C)(C)CCOc1ccc(/C(=C(/CC)c2ccccc2)c2ccccc2)cc1.[Br-] [TAMOXIFEN BUTYL BROMIDE]
2,8,CC/C(=C(\c1ccccc1)c1ccc(OCC[N+](C)(C)CC)cc1)c1ccccc1.[Br-] [TAMOXIFEN ETHYL BROMIDE]
3,9,CCC[N+](C)(C)CCOc1ccc(/C(=C(/CC)c2ccccc2)c2ccccc2)cc1.[Br-] [TAMOXIFEN PROPYL BROMIDE]

# Target: T1, Estrogen receptor (Homo sapiens) (UniProt P03372)
# T1 sequence (whole entry): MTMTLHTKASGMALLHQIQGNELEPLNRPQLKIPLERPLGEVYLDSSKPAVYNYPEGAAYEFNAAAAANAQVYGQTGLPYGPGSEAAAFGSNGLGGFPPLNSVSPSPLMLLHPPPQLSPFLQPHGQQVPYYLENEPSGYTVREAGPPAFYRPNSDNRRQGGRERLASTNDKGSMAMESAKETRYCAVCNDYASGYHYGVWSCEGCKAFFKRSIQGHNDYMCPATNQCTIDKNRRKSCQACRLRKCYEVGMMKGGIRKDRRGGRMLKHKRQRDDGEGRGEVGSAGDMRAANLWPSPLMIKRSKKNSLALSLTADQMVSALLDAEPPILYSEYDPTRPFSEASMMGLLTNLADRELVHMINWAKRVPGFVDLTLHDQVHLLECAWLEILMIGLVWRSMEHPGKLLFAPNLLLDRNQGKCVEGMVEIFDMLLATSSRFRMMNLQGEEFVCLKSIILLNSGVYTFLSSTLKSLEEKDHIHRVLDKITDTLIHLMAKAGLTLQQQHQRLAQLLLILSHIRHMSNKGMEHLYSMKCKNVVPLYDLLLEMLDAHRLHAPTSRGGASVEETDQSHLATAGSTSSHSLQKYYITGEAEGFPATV
# Assay: Agonist activity at human ERalpha expressed in human HeLa cells coexpressing ERE-E1b-Luc assessed as transcriptional activation after 48 hrs by luciferase reporter gene assay relative to estradiol
# Type: functional, cell-based
row,Activity [%],Compound
1,50,CC/C(=C(\c1ccccc1)c1ccc(OCC[N+](C)(C)C(C)C)cc1)c1ccccc1.[Br-] [TAMOXIFEN ISOPROPYL BROMIDE]

# System: MCF7
# Assay: Cytotoxicity against human MCF7 cells assessed as reduction of cell proliferation at 1 nM to 1 uM after 96 hrs by MTT assay
# Type: functional, cell-based
row,Compound,Activity
1,CCCC[N+](C)(C)CCOc1ccc(/C(=C(/CC)c2ccccc2)c2ccccc2)cc1.[Br-] [TAMOXIFEN BUTYL BROMIDE],inactive
2,CC/C(=C(\c1ccccc1)c1ccc(OCC[N+](C)(C)CC)cc1)c1ccccc1.[Br-] [TAMOXIFEN ETHYL BROMIDE],inactive
3,CC/C(=C(\c1ccccc1)c1ccc(OCC[N+](C)(C)C)cc1)c1ccccc1.[I-] [TAMOXIFEN METHYL IODIDE],inactive
4,CC/C(=C(\c1ccccc1)c1ccc(OCCN(C)C)cc1)c1ccccc1 [TAMOXIFEN],inactive
5,CCC[N+](C)(C)CCOc1ccc(/C(=C(/CC)c2ccccc2)c2ccccc2)cc1.[Br-] [TAMOXIFEN PROPYL BROMIDE],inactive
6,CC/C(=C(\c1ccccc1)c1ccc(OCC[N+](C)(C)C(C)C)cc1)c1ccccc1.[Br-] [TAMOXIFEN ISOPROPYL BROMIDE],inactive

# System: MCF7
# Assay: Cytotoxicity against human MCF7 cells assessed as reduction of cell proliferation at 6 uM after 96 hrs by MTT assay
# Type: functional, cell-based
row,Compound,Activity
1,CCCC[N+](C)(C)CCOc1ccc(/C(=C(/CC)c2ccccc2)c2ccccc2)cc1.[Br-] [TAMOXIFEN BUTYL BROMIDE],Active
2,CC/C(=C(\c1ccccc1)c1ccc(OCC[N+](C)(C)CC)cc1)c1ccccc1.[Br-] [TAMOXIFEN ETHYL BROMIDE],Active
3,CC/C(=C(\c1ccccc1)c1ccc(OCC[N+](C)(C)C)cc1)c1ccccc1.[I-] [TAMOXIFEN METHYL IODIDE],Active
4,CC/C(=C(\c1ccccc1)c1ccc(OCCN(C)C)cc1)c1ccccc1 [TAMOXIFEN],Active
5,CCC[N+](C)(C)CCOc1ccc(/C(=C(/CC)c2ccccc2)c2ccccc2)cc1.[Br-] [TAMOXIFEN PROPYL BROMIDE],Active
6,CC/C(=C(\c1ccccc1)c1ccc(OCC[N+](C)(C)C(C)C)cc1)c1ccccc1.[Br-] [TAMOXIFEN ISOPROPYL BROMIDE],Active

# System: Cancer cell lines
# Assay: Cytotoxicity against human cervical cancer cells assessed as reduction of [3H]thymidine incorporation at 2 uM after 24 to 48 hrs by scintillation counting
# Type: functional, cell-based
row,Compound,Activity
1,CCCC[N+](C)(C)CCOc1ccc(/C(=C(/CC)c2ccccc2)c2ccccc2)cc1.[Br-] [TAMOXIFEN BUTYL BROMIDE],inactive
2,CC/C(=C(\c1ccccc1)c1ccc(OCC[N+](C)(C)C(C)C)cc1)c1ccccc1.[Br-] [TAMOXIFEN ISOPROPYL BROMIDE],inactive

# System: Cancer cell lines
# Assay: Cytotoxicity against human cervical cancer cells assessed as reduction of [3H]thymidine incorporation at 5 nM after 24 to 48 hrs by scintillation counting
# Type: functional, cell-based
row,Compound,Activity
1,CCCC[N+](C)(C)CCOc1ccc(/C(=C(/CC)c2ccccc2)c2ccccc2)cc1.[Br-] [TAMOXIFEN BUTYL BROMIDE],Active
2,CC/C(=C(\c1ccccc1)c1ccc(OCC[N+](C)(C)C(C)C)cc1)c1ccccc1.[Br-] [TAMOXIFEN ISOPROPYL BROMIDE],Active

# Target: T2, Estrogen receptor (Homo sapiens, UniProt P03372)
# T2 sequence (P03372 whole entry): T1 sequence (whole entry)
# Assay: biochemical
# Description: Displacement of [2,4,6,7-3H]estradiol from human ERalpha expressed in HeLa cells after 18 hrs by liquid scintillation counting
row,Compound,Ki [nM]
1,CC/C(=C(\c1ccccc1)c1ccc(OCC[N+](C)(C)C)cc1)c1ccccc1.[I-] [TAMOXIFEN METHYL IODIDE],46.3
2,CC/C(=C(\c1ccccc1)c1ccc(OCC[N+](C)(C)C(C)C)cc1)c1ccccc1.[Br-] [TAMOXIFEN ISOPROPYL BROMIDE],25.4

# The remaining lines, values ahead:
row,Ki [nM],Compound
1,13,CCCC[N+](C)(C)CCOc1ccc(/C(=C(/CC)c2ccccc2)c2ccccc2)cc1.[Br-] [TAMOXIFEN BUTYL BROMIDE]
2,13.7,CC/C(=C(\c1ccccc1)c1ccc(OCC[N+](C)(C)CC)cc1)c1ccccc1.[Br-] [TAMOXIFEN ETHYL BROMIDE]
